# Results as given in publication PMC7048748, “Anxiolytic Drug FGIN-1-27 Ameliorates Autoimmunity by Metabolic Reprogramming of Pathogenic Th17 Cells” (Scientific Reports, 2020).
# pIC50: −log10 of the molar value.
# Tests used:
# Th17 cells = experiment: Th17 differentiation assay, intracellular IL-17 by flow cytometry; assay type: cell-based, mouse
# Procedure: Because of differential TSPO expression in Th17 cells (Fig. S1a) and up-regulation of TSPO in neuroinflammation, we tested whether TSPO ligands, such as FGIN-1-27, can affect Th17 differentiation. In this assay, purified CD4^+ T cells from mouse spleens and lymph nodes were cultured under Th17 polarizing conditions. […] FGIN-1-27 treatment had no effect on protein or transcript levels of RORγt, the Th17 lineage-determining transcription factor.
# Figure 1 FGIN-1-27 Inhibits Th17 Differentiation. Naïve CD4 T cells from spleens and lymph nodes of C57BL/6 mice were differentiated under Th17 polarization conditions and were treated with DMSO (control) or FGIN-1-27. (a) Dose response plot showing effect of FGIN-1-27 on intracellular IL-17 and viability on day 4 post activation quantified by flow cytometry. Data is normalized against DMSO (100%). […] (b) Dot plots showing DMSO or FGIN-1-27 treated cells stained for surface CD4, CD44, intracellular IL-17 and intranuclear RORγt. (c) Transcript levels for the indicated genes after 24 hours of treatment with DMSO or FGIN-1-27 quantified by qPCR. Data was normalized to a housekeeping gene, β-actin. Data are representative of at least 3 independent experiments and the error bars indicate standard deviation.
# Single cell suspensions were prepared from spleens and lymph nodes of mice by mechanical disruption. Red blood cells were lysed by ammonium chloride followed by CD4^+ T cell purification using either CD4 microbeads (Miltenyi Biotec) or sorting for naïve CD4^+ T cells (FACS Aria). 250,000 cells/well in a 48 well plate were polarized into Th17 cells using Th17 differentiation cocktail: IFNγ, IL-4, IL-12 neutralizing antibodies (10 μg/ml) and 10 ng/ml each of IL-6, IL-1b, IL-21 and TGF-β (0.5 ng/ml). Cells were treated with FGIN-1-27 (Tocris Bioscience) or DMSO at 18 hour and 48 hours post cell plating. On day 4 of culture, cells were re-stimulated with PMA-ionomycin in the presence of brefeldin A. Cells were subsequently stained with viability dye and surface stained for CD44, CD4 followed by permeabilization using cytofix/cytoperm (BD biosciences) and stained for intracellular IL-17. RORγt intranuclear staining was performed after fixation and permeabilization with a Foxp3/Transcription Factor Staining kit (eBioscience). Cells were acquired on BD Fortessa followed by analysis using Flowjo (Tree star Inc).
# ZAP70 = experiment: Phospho ZAP70 staining after anti-CD3/CD28 stimulation; assay type: cell-based, mouse; conditions: 10 μM, 24 hours
# Procedure: The following day, cells were treated with either DMSO or of FGIN-1-27 (10 μM). For phospho-ZAP70 analyses, cells were stained after 24 hours of treatment using 10 μg/ml of biotinylated anti-CD3 (145-2C11, BD Biosciences) and anti-CD28 (37.51, BD Biosciences) antibodies on ice for 15 minutes, washed, and stimulated in presence of 20 μg/ml of Streptavidin for 10 minutes at 37 degrees. Cells were then fixed in 2% PFA, permeabilized in Methanol/Acetone and stained with anti-phospho ZAP70 antibody (n3kobu5, eBioscience) and anti-CD4 (RM4-5, eBioscience). For phospho-STAT3 analyses, cells were cultured for additional 24 hours in IL-6 free media, before stimulation with 100 ng/ml of mIL-6 for 30 minutes. Cells were then fixed in 2% PFA, permeabilized in Methanol/Acetone and stained with anti-phospho-STAT3 antibody (4/P-STAT3, BD Biosciences) and anti-CD4. Dead cells were excluded using Live/Dead […] (Thermo Fisher) staining prior to stimulation. page 3: Supplementary Figur es Fig S1 (a) Genomic browser screenshot of Tspo depicting normalized RNA-seq read coverage (RPM) in different T cell subsets. Data were downloaded from NCBI GEO (accession number GSE40918) and processed as in Figure 4A. […] (g) Transcript levels for S ta t3 after 24 hours of treatment with DMSO or FGIN-1-27 quantified by qPCR. […]
# [1] = system: experimental autoimmune encephalomyelitis (EAE); experiment: Active EAE induced with MOG peptide 35-55; assay type: in vivo, mouse; conditions: 30 mg/kg intraperitoneal twice daily for 7 days
# [2] = system: reactive oxygen species (ROS); experiment: Intracellular ROS with DCFDA; assay type: cell-based, mouse; conditions: 24-hour post treatment, 5 and 10 µM
# Procedure: Figure 5 FGIN-1-27 induces amino acid starvation response (AAR). (a) MA-plot showing shrunken log2 fold-changes of detected genes between the DMSO and FGIN-1-27 RNA-seq samples, ranked by average normalized count. […] (b) Transcript levels for the indicated genes after 24 hours of treatment with DMSO or FGIN-1-27 quantified by qPCR. The error bars represent SD. (c) Western blot analysis for phosphorylated eIF2α and ATF4 24 hours after treatment with DMSO or FGIN-1-27 (5 and 10 μM). Data are representative of 3 independent experiments. (d) Amino acids in Th17 cells measured 72 hours after treatment with FGIN-1-27. The error bars represent SD. (e) ROS was measured using cell permeant reagent 2',7' -dichlorofluorescin diacetate (DCFDA) at 24 hours following treatment with FGIN-1-27. Filled grey histogram-DMSO, dotted line-FGIN-1-27 (10 μM) and dashed line indicates FGIN-1-27 (5 μM). (f) Dose response plot showing effect of FGIN-1-27 on intracellular IL-17 after pre-treatment with NAC (1 μM). Data are normalized using DMSO treated cells as 100% and the error bars represent SD. Increased amino acid synthesis and transport is characteristic of the amino acid starvation response (AAR)[20]. […] Induction of ATF4 can be an indication of oxidative stress and we measured reactive oxygen species (ROS) using the cell permeant reagent 2',7' -dichlorofluorescin diacetate (DCFDA).
smiles,measurement,setting,value
"CCCCCCN(CCCCCC)C(=O)Cc1c(-c2ccc(F)cc2)[nH]c2ccccc12 [FGIN-1-27, N, N-di-n-hexyl 2-(4-fluorophenyl) indole-3-acetamide]",protein or transcript levels of RORγt,Th17 cells,no effect
same,proliferation (CFSE dilution),Th17 cells; 72 hours post treatment,proliferated to the same extent as DMSO treated cells
same,pIC50,"Th17 cells; Mus musculus, 96 h, day 4 post activation, normalized against DMSO (100%)",5.31
same,viability,Th17 cells; Th17 polarizing conditions,without compromising viability
same,IL-17 producing cells abolished,Th17 cells; compared to DMSO treated cultures,85%
same,"CD4 / CD44 dot plot, percent of cells","Th17 cells; treated cells, Fig. 1b",98%
same,"IL-17 / RORγt dot plot, percent of cells","Th17 cells; treated cells, Fig. 1b",8.0%
same,phosphorylation of ZAP70,ZAP70,did not phosphorylate ZAP70
same,onset or severity of the symptoms,[1],did not affect onset or severity
same,intracellular ROS levels,[2],dose dependent increase
